Measurements taken from patent US10278942B2 (PELOTON THERAPEUTICS, INC., priority 2015, dated 2019).
Where two headings read alike, the source gives them in different places.

Legend:
[1] = target: T1, HIF-2α HIS TAG-PASB Domain (Homo sapiens, UniProt Q99814); assay: HIF-2α Scintillation Proximity Assay (SPA); format: binding
T1 construct: 100 nM HIF-2α HIS TAG-PASB Domain
Method in brief: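 IC50 values rest on percent inhibition, where the sample signal is scaled between high and low controls. Wells contain about 100 μL: compound dispensed as 2 μL of DMSO solution, 88 μL protein-probe mix and 10 μL of beads.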

786-O cells = assay: VEGF ELISA Assay; format: cell-based; settings: Homo sapiens, 786-0
Protocol: Each concentration was plated in duplicate. About 20 hours later, medium was removed by suction and each well was supplied with 180 μL of growth medium. About 20 μl freshly-made 10× compound stocks were added to each well. […] The EC50 was calculated by GraphPad Prism using the dose-response-inhibition (four parameter) equation. The cell-seeded plate was then subjected to CellTiter-Glo luminescence cell viability assay (Promega) by adding 50 μL of Celltiter Glo reagent into each well and shaking the plate for 8 minutes at 550 rpm (Thermomixer R, Eppendorf) then the luminescence signal immediately read in a plate reader (3 second delay, 0.5 second/well integration time, Synergy 2 multi Detection Microplate reader).

786-O-Hif-Luc cells = assay: Luciferase Assay (HIF responsive elements reporter)
Protocol: A pool of infected cells were then selected against 2 μg/mL of puromycin (P8833, Sigma) for 10 days followed by limited dilution to select single clones. […] Each concentration was tested in triplicate. After about 24 hours, luciferase activity was determined using ONE-Glo Luciferase Assay Reagent (E6110, Promega) following the manufacturer's recommended procedure. EC50 were calculated using Dotmatics software.

[2] = read-out: Scintillation Proximity Assay IC50
[3] = read-out: Mean Luciferase EC50 (nM), 786-O-Hif-Luc cells
[4] = read-out: Mean Luciferase EC50 (nM)
[5] = Scintillation Proximity Assay IC50 (nM)

T1 sequence (Q99814 240-350 limits assumed): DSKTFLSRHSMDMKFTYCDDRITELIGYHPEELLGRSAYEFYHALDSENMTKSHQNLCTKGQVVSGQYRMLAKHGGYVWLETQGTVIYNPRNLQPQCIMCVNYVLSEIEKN

Structure (SMILES) | IC50 [1, 2] [nM] | EC50 (786-O cells) [nM] | EC50 (786-O-Hif-Luc cells; [3]) [nM] | EC50 (786-O-Hif-Luc cells; [4]) [nM] | IC50 [1, 5] [nM]
O=S(=O)(CF)c1ccc(Oc2cc(F)cc(F)c2)c2c1[C@H](O)CC2 [Compound 60] | < 50 | < 50 | 50 to 249 |  | 
N#Cc1cc(Oc2ccc(S(=O)(=O)C(F)(F)F)c3c2CC(F)(F)[C@H]3O)c[n+]([O-])c1 [Compound 267] | 50 to 249 | 250 to 1000 | 50 to 249 |  | 
O=S(=O)(c1ccc(OC2CCCC2)c2c1C(O)C(F)(F)C2)C(F)(F)F (stereo not shown) [Compound 605] | < 50 | 50 to 249 | < 50 |  | 
O=S(=O)(c1ccc(OC2COC2)c2c1[C@H](O)C(F)(F)C2)C(F)(F)F [Compound 784] | 50 to 249 | 50 to 249 | 50 to 249 |  | 
O=S(=O)(c1ccc(OCC2COC2)c2c1[C@H](O)C(F)(F)C2)C(F)(F)F [Compound 713] | < 50 | 50 to 249 | 50 to 249 |  | 
N#Cc1cc(F)cc(Oc2ccc(S(=O)(=O)C(F)F)c3c2CC[C@H]3O)c1 [Compound 155] |  | 50 to 249 |  | 50 to 249 | 
O=S1(=O)c2ccc(Oc3cncc(Cl)c3)c(Br)c2[C@@H](O)C1(F)F [Compound 421] | 50 to 249 | 50 to 249 | 50 to 249 |  | 
CCCCOc1ccc(S(=O)(=O)C(F)(F)F)c2c1CC(F)(F)[C@H]2O [Compound 710] | < 50 | 50 to 249 | < 50 |  | 
O=S(=O)(c1ccc(Nc2cc(F)cc(F)c2)c2c1C(O)C(F)(F)C2)C(F)(F)F (stereo not shown) [Compound 507] | < 50 | 50 to 249 | 50 to 249 |  | 
O=S(=O)(c1ccc(OC2CCOCC2)c2c1[C@H](O)C(F)(F)C2)C(F)(F)F [Compound 744] | < 50 | < 50 | < 50 |  | 
O=S(=O)(c1ccc(Oc2cc(F)c[n+]([O-])c2)c2c1[C@H](O)C(F)(F)C2)C(F)(F)F [Compound 310] | < 50 | 50 to 249 | 50 to 249 |  | 
O=S(=O)(CF)c1ccc(Oc2cc(F)c(F)c(F)c2)c2c1[C@H](O)C(F)(F)C2 [Compound 188] | < 50 | 50 to 249 | 50 to 249 |  | 
N#Cc1cc(F)cc(Oc2ccc(C(F)(F)F)c3c2CC(F)(F)[C@H]3O)c1 [Compound 273] | < 50 | < 50 | < 50 |  | 
O=S(=O)(c1ccc(OCCF)c2c1[C@H](O)C(F)(F)C2)C(F)(F)F [Compound 706] | 50 to 249 | 50 to 249 | 50 to 249 |  | 
O=S(=O)(c1ccc(OC2CCC2)c2c1[C@H](O)C(F)(F)C2)C(F)(F)F [Compound 657] | < 50 | < 50 | < 50 |  | 
CS(=O)(=O)c1ccc(OC2CC(F)(F)C2)c2c1[C@H](O)[C@H](F)[C@@H]2F [Compound 577] | < 50 | 250 to 1000 | 250 to 1000 |  | 
CS(=O)(=O)c1ccc(O[C@H]2C[C@H](C#N)C2)c2c1[C@H](O)C(F)(F)[C@@H]2F [Compound 760] | < 50 | 50 to 249 | 50 to 249 |  | 
O=S(=O)(c1ccc(Oc2ccc(F)c(F)c2)c2c1[C@H](O)C(F)(F)C2)C(F)(F)F [Compound 233] | < 50 | < 50 | < 50 |  | 
N#Cc1cc(F)cc(Nc2ccc(S(=O)(=O)C(F)(F)F)c3c2CC(F)(F)[C@H]3O)c1 [Compound 489, (S)-3-((2,2-difluoro-1-hydroxy-7-((trifluoromethyl)sulfonyl)-2,3-dihydro-1H-inden-4-yl)amino)-5-fluorobenzonitrile] | < 50 | < 50 | < 50 |  | 
O=S(=O)(CF)c1ccc(OC2CC(F)(F)C2)c2c1[C@H](O)C(F)(F)[C@@H]2F [Compound 576, (1S,3R)-4-(3,3-difluorocyclobutoxy)-2,2,3-trifluoro-7-((fluoromethyl)sulfonyl)-2,3-dihydro-1H-inden-1-ol] | < 50 | 50 to 249 | < 50 |  | 
CS(=O)(=O)c1ccc(O[C@H]2C[C@H](F)C2)c2c1[C@H](O)C(F)(F)[C@@H]2F [Compound 736] | < 50 | 50 to 249 | 50 to 249 |  | 
O=S(=O)(CF)c1ccc(OC2CC(F)(F)C2)c2c1[C@H](O)[C@H](F)[C@@H]2F [Compound 578] | < 50 | 50 to 249 | 50 to 249 |  | 
C[C@@]1(O)c2c(ccc(Oc3cc(F)cc(C#N)c3)c2C#N)S(=O)(=O)C1(F)F [Compound 458] |  | < 50 | < 50 |  | 
O=S(=O)(c1ccc(Oc2cc(F)cc(Cl)c2)c2c1C(O)C(F)(F)C2)C(F)F (stereo not shown) [Compound 8] |  | < 50 | < 50 |  | < 50
O=S(=O)(c1ccc(Oc2cc(F)cc(F)c2)c2c1[C@H](O)CC2)C(F)F [Compound 2] | < 50 | 50 to 249 | 50 to 249 |  | 
O=S(=O)(c1ccc(Oc2ccc(F)cc2)c2c1[C@H](O)C(F)(F)C2)C(F)(F)F [Compound 230] | < 50 | < 50 | < 50 |  | 
O[C@H]1c2c(C(F)(F)F)ncc(OC3CC(F)C3)c2C[C@H]1F (stereo partly shown) [Compound 478] |  | < 50 | < 50 |  | 

Structure (SMILES) | IC50 [1, 2] [nM] | EC50 (786-O cells) [nM] | EC50 (786-O-Hif-Luc cells; [3]) [nM] | EC50 (786-O-Hif-Luc cells; [4]) [nM] | IC50 [1, 5] [nM]
CS(=O)(=NC#N)c1ccc(Oc2cc(F)cc(F)c2)c2c1C(O)C(F)(F)C2 (stereo not shown) [Compound 191] | < 50 | 50 to 249 | 50 to 249 |  | 
N#Cc1cc(F)cc(Oc2ccc3c(c2Cl)[C@@H](O)C(F)(F)S3(=O)=O)c1 [Compound 431] | < 50 | 50 to 249 | < 50 |  | 
O=S(=O)(c1ccc(Oc2cc(F)cc(Cl)c2)c2c1C(O)CC2)C(F)F (stereo not shown) [Compound 17] |  | 50 to 249 |  |  | 
Cc1c(S(=O)(=O)C(F)F)ccc(Oc2cc(F)cc(F)c2)c1C#N [Compound 34] | < 50 | 250 to 1000 | 250 to 1000 |  | 
N#Cc1cc(F)cc(Oc2ccc(S(=N)(=O)C(F)(F)F)c3c2CC(F)(F)[C@H]3O)c1 (stereo partly shown) [Compound 305] | < 50 | < 50 | < 50 |  | 
CC1(O)c2c(ccc(Oc3cc(F)cc(F)c3)c2C#N)S(=O)(=O)C1(F)F (stereo not shown) [Compound 446] | < 50 | < 50 | < 50 |  | 
N#Cc1c(S(=O)(=O)C(F)(F)F)ccc(Oc2cc(F)cc(Cl)c2)c1Br [Compound 98] | < 50 | > 1000 | > 1000 |  | 
N#Cc1cncc(Oc2ccc(C(F)(F)F)c3c2CC(F)(F)[C@H]3O)c1 [Compound 303] | < 50 | 50 to 249 | < 50 |  | 
O=S(=O)(c1ccc(Oc2cc(F)cc(Cl)c2)c(Cl)c1CO)C(F)F [Compound 41] |  | 250 to 1000 |  | 250 to 1000 | 
O=S(=O)(c1ccc(Oc2cc(F)cc(Cl)c2)c(Br)c1CO)C(F)(F)F [Compound 102] | 50 to 249 | 250 to 1000 |  |  | 
O=S1(=O)c2ccc(Oc3cc(F)cc(Cl)c3)c(Br)c2C(O)C1(F)F (stereo not shown) [Compound 355] |  | 50 to 249 |  |  | < 50
N#Cc1cc(S(=O)(=O)C(F)F)ccc1Oc1cc(F)cc(Cl)c1 [Compound 133] | 250 to 1000 | > 1000 |  |  | 
O=S(=O)(c1ccc(Oc2cc(F)cc(Cl)c2)c2c1[C@H](O)CC2)C(F)F [Compound 1] |  | 250 to 1000 |  |  | 
N#Cc1cc(F)cc(Oc2ccc(S(=N)(=O)CF)c3c2CC(F)(F)[C@H]3O)c1 (stereo partly shown) [Compound 274] | 50 to 249 | > 1000 |  |  | 
N#Cc1ccc(Oc2cc(F)cc(F)c2)c2c1[C@H](O)C(F)(F)C2 [Compound 67] |  | 50 to 249 |  |  | 
N#Cc1cccc(Oc2ccc(S(=O)(=O)C(F)(F)F)c(C#N)c2Br)c1 [Compound 99] |  | 250 to 1000 | 250 to 1000 |  | 
O=S(=O)(c1ccc(Oc2cc(F)cc(Cl)c2)c(Br)c1Cl)C(F)(F)F [Compound 179] | < 50 | > 1000 |  |  | 
CC1(O)c2c(ccc(Oc3cc(F)cc(C#N)c3)c2C#N)S(=O)(=O)C1(F)F (stereo not shown) [Compound 451] |  | < 50 | < 50 |  | 
O=S(=O)(c1ccc(Oc2cc(F)cc(Cl)c2)c(C(F)F)c1)C(F)(F)F [Compound 124] |  | 250 to 1000 |  | 250 to 1000 | 
CS(=O)(=O)c1ccc(Oc2cc(Cl)cc(C#N)c2)c2c1[C@H](O)C(F)(F)C2 [Compound 234] |  | 50 to 249 |  | < 50 | 
Cc1c(Oc2cc(F)cc(C#N)c2)ccc(S(=O)(=O)C(F)(F)F)c1CO [Compound 146] | 50 to 249 |  | 250 to 1000 |  | 
CS(=O)(=O)c1ccc(O[C@H]2C[C@@H](O)C2)c2c1[C@H](O)C(F)(F)[C@@H]2F [Compound 735] | 250 to 1000 |  | > 1000 |  | 
N#C[C@H]1C[C@H](Oc2ccc(S(=O)(=O)C(F)(F)F)c3c2CC(F)(F)[C@H]3O)C1 [Compound 786] | < 50 |  | < 50 |  | 
O=C1c2c(S(=O)(=O)C(F)F)ccc(Oc3ccc(F)c(F)c3)c2CC1(F)F [Compound 195] | 50 to 249 |  | > 1000 |  | 
N#Cc1c(Oc2cccc(F)c2)ccc2c1[C@@H](O)CS2(=O)=O [Compound 422] | 250 to 1000 |  | 250 to 1000 |  | 
CC1(C)CC(c2ccc(S(=O)(=O)C(F)(F)F)c3c2CC(F)(F)[C@H]3O)=CC(O)C1 (stereo partly shown) [Compound 551] | 50 to 249 |  | > 1000 |  | 
O=S(=O)(c1ccc(OCC2CC2)c2c1[C@H](O)C(F)(F)C2)C(F)F [Compound 781] | 250 to 1000 |  | 50 to 249 |  | 
